Patent US9994581B2, “Bromodomain inhibitors” (AbbVie Inc., priority 2013, dated 2018)

Columns and labels:
[1] = molecular target: BRD4 (BDI-BDII_K57-K550) (Homo sapiens, UniProt O60885); assay: TR-FRET bromodomain binding assay; conditions: His-tagged tandem bromodomain, Alexa647-labeled probe; Ki calculated from IC50s, probe Kd and probe concentration
Protocol: A time-resolved fluorescence resonance energy transfer (TR-FRET) assay was used to determine the affinities of compounds of the Examples listed in Table 1 for the tandem domain of bromodomain BRD4. […] An Alexa647-labeled BET-inhibitor was used as the fluorescent probe in the assay.
TR-FRET data were normalized to the means of 24 no-compound controls (“high”) and 8 controls containing 1 μM un-labeled probe (“low”). Percent inhibition was plotted as a function of compound concentration and the data were fit with the 4 parameter logistic equation to obtain IC50s. Inhibition constants (Ki) were calculated from the IC50s, probe Kd and probe concentration. Typical Z′ values were between 0.65 and 0.75.

[2] = tested on: breast cancer cell line MX-1; assay: MX-1 cell line proliferation assay (3-day, Cell Titer Glo); assay type: cell-based; conditions: Homo sapiens, MX1, MX-1 cells, 72 hours, read-out: Cellular proliferation: EC50
Protocol: The impact of compounds of the Examples on cancer cell proliferation was determined using the breast cancer cell line MX-1 (ATCC) in a 3-day proliferation assay and the data are reported in Table 1. […] For compound testing, MX-1 cells were plated in 96-well black bottom plates at a density of 5000 cells/well in 90 μL of culture media and incubated at 37° overnight to allow cell adhesion and spreading. Compound dilution series were prepared in DMSO via a 3-fold serial dilution from 3 mM to 0.1 μM. The DMSO dilution series were then diluted 1:100 in phosphate buffered saline, and 10 μL of the resulted solution were added to the appropriate wells of the MX-1 cell plate. The final compound concentrations in the wells were 3, 1, 0.3, 0.1, 0.03, 0.01, 0.003, 0.001, 0.0003, and 0.0001 μM, or 1, 0.3, 0.1, 0.03, 0.01, 0.003, 0.001, 0.0003, 0.0001, and 0.00003 μM.
Luminescence readings from the Cell Titer Glo assay were normalized to the DMSO treated cells and analyzed using the GraphPad Prism software with sigmoidal curve fitting to obtain EC50s.

Compound	Ki [1]	EC50 [2]
COC(=O)c1cnc2c(c1)-c1cn(C)c(=O)cc1OCCCCc1cc(Cl)ccc1O2 [Example A-31, methyl 11-chloro-2-methyl-3-oxo-2,3,6,7,8,9-hexahydrobenzo[11,12][1,6]dioxacyclododecino[2,3-b:4,5-c′]dipyridine-17-carboxylate]	24.3 nM	302 nM
CCS(=O)(=O)Nc1ccc2c(c1)-c1cn(C)c(=O)cc1OCCCCc1cc(OC(F)(F)F)ccc1O2 [Example A-37, N-[2-methyl-3-oxo-11-(trifluoromethoxy)-2,3,6,7,8,9-hexahydrodibenzo[4,5:7,8][1,6]dioxacyclododecino[3,2-c]pyridin-17-yl]ethanesulfonamide]	0.87 nM	6.12 nM
Cn1cc2c(cc1=O)OCCCCc1cc(Cl)ccc1Oc1ncc(C(=O)O)cc1-2 [Example A-38, 11-chloro-2-methyl-3-oxo-2,3,6,7,8,9-hexahydrobenzo[11,12][1,6]dioxacyclododecino[2,3-b:4,5-c′]dipyridine-17-carboxylic acid]	14.7 nM	> 1000 nM
CCS(=O)(=O)Nc1ccc2c(c1)-c1cn(C)c(=O)cc1OCCCCc1cc(Cl)cnc1O2 [Example A-41, N-(3-chloro-12-methyl-11-oxo-5,6,7,8,11,12-hexahydrobenzo[4,5][1,6]dioxacyclododecino[7,8-b:3,2-c′]dipyridin-15-yl)ethanesulfonamide]	8.05 nM	26.8 nM
CCS(=O)(=O)c1ccc2c(c1)-c1cn(C)c(=O)cc1OCCCCc1ccncc1O2 [Example A-42, 17-(ethylsulfonyl)-2-methyl-6,7,8,9-tetrahydrobenzo[4,5][1,6]dioxacyclododecino[3,2-c:7,8-c′]dipyridin-3(2H)-one]	0.86 nM	10.2 nM
Cn1cc2c(cc1=O)OCCCCc1ccc(Cl)cc1Oc1ccc(NS(C)(=O)=O)cc1-2 [Example A-44, N-(12-chloro-2-methyl-3-oxo-2,3,6,7,8,9-hexahydrodibenzo[4,5:7,8][1,6]dioxacyclododecino[3,2-c]pyridin-17-yl)methanesulfonamide]	1.22 nM	4.05 nM
CCS(=O)(=O)Nc1ccc2c(c1)-c1cn(C)c(=O)cc1OCCCCc1cc(C#N)ccc1O2 [Example A-45, N-(11-cyano-2-methyl-3-oxo-2,3,6,7,8,9-hexahydrodibenzo[4,5:7,8][1,6]dioxacyclododecino[3,2-c]pyridin-17-yl)ethanesulfonamide]	1.84 nM	3.82 nM
CCS(=O)(=O)Nc1ccc2c(c1)-c1cn(C)c(=O)cc1OCCCCc1cccnc1O2 [Example A-46, N-(12-methyl-11-oxo-5,6,7,8,11,12-hexahydrobenzo[4,5][1,6]dioxacyclododecino[7,8-b:3,2-c′]dipyridin-15-yl)ethanesulfonamide]	32.1 nM	50.7 nM
Cn1cc2c(cc1=O)OCCCCc1cc(C#N)ccc1Oc1ccc(NS(C)(=O)=O)cc1-2 [Example A-47, N-(11-cyano-2-methyl-3-oxo-2,3,6,7,8,9-hexahydrodibenzo[4,5:7,8][1,6]dioxacyclododecino[3,2-c]pyridin-17-yl)methanesulfonamide]	3.68 nM	24.4 nM
CCS(=O)(=O)Nc1ccc2c(c1)-c1cn(C)c(=O)cc1OCCCCc1cc(F)ccc1O2 [Example A-49, N-(11-fluoro-2-methyl-3-oxo-2,3,6,7,8,9-hexahydrodibenzo[4,5:7,8][1,6]dioxacyclododecino[3,2-c]pyridin-17-yl)ethanesulfonamide]	1.57 nM	3.64 nM
Cn1cc2c(cc1=O)OCCCCc1cc(F)ccc1Oc1ccc(NS(C)(=O)=O)cc1-2 [Example A-50, N-(11-fluoro-2-methyl-3-oxo-2,3,6,7,8,9-hexahydrodibenzo[4,5:7,8][1,6]dioxacyclododecino[3,2-c]pyridin-17-yl)methanesulfonamide]	2.24 nM	3.72 nM
Cn1cc2c(cc1=O)OCCCCc1cc(C(F)(F)F)ccc1Oc1ccc(NS(C)(=O)=O)cc1-2 [Example A-51, N-(2-methyl-3-oxo-11-(trifluoromethyl)-2,3,6,7,8,9-hexahydrodibenzo[4,5:7,8][1,6]dioxacyclododecino[3,2-c]pyridin-17-yl)methanesulfonamide]	1.72 nM	14 nM
CCS(=O)(=O)Nc1ccc2c(c1)-c1cn(C)c(=O)cc1OCCCCc1ccc(Cl)cc1O2 [Example A-52, N-(12-chloro-2-methyl-3-oxo-2,3,6,7,8,9-hexahydrodibenzo[4,5:7,8][1,6]dioxacyclododecino[3,2-c]pyridin-17-yl)ethanesulfonamide]	0.75 nM	5.76 nM
CCS(=O)(=O)c1ccc2c(c1)-c1nn(C)c(=O)cc1OCCCCc1cc(Cl)ccc1O2 [Example A-53, 11-chloro-17-(ethylsulfonyl)-2-methyl-6,7,8,9-tetrahydrodibenzo[4,5:7,8][1,6]dioxacyclododecino[3,2-c]pyridazin-3(2H)-one]	6.32 nM	47.5 nM
CCS(=O)(=O)c1ccc2c(c1)-c1nn(C)c(=O)cc1OCCCCc1cc(C#N)ccc1O2 [Example A-54, 17-(ethylsulfonyl)-2-methyl-3-oxo-2,3,6,7,8,9-hexahydrodibenzo[4,5:7,8][1,6]dioxacyclododecino[3,2-c]pyridazine-11-carbonitrile]	19.7 nM	162 nM
CCS(=O)(=O)Nc1ccc2c(c1)-c1nn(C)c(=O)cc1OCCCCc1cc(Cl)ccc1O2 [Example A-55, N-(11-chloro-2-methyl-3-oxo-2,3,6,7,8,9-hexahydrodibenzo[4,5:7,8][1,6]dioxacyclododecino[3,2-c]pyridazin-17-yl)ethanesulfonamide]	2.91 nM	14.2 nM
CCS(=O)(=O)Nc1ccc2c(c1)-c1nn(C)c(=O)cc1OCCCCc1cc(C#N)ccc1O2 [Example A-56, N-(11-cyano-2-methyl-3-oxo-2,3,6,7,8,9-hexahydrodibenzo[4,5:7,8][1,6]dioxacyclododecino[3,2-c]pyridazin-17-yl)ethanesulfonamide]	3.99 nM	16.9 nM

More lines, now with the values ahead:

Ki [1]	EC50 [2]	Compound
6.92 nM	33.3 nM	CCS(=O)(=O)c1cnc2c(c1)-c1cn(C)c(=O)cc1OCCCCc1cc(Cl)ccc1O2 [Example A-34, 11-chloro-17-(ethylsulfonyl)-2-methyl-6,7,8,9-tetrahydrobenzo[11,12][1,6]dioxacyclododecino[2,3-b:4,5-c′]dipyridin-3(2H)-one]
0.68 nM	4.18 nM	CCS(=O)(=O)Nc1cnc2c(c1)-c1cn(C)c(=O)cc1OCCCCc1cc(F)cc(F)c1O2 [Example A-35, N-(11,13-difluoro-2-methyl-3-oxo-2,3,6,7,8,9-hexahydrobenzo[11,12][1,6]dioxacyclododecino[2,3-b:4,5-c′]dipyridin-17-yl)ethanesulfonamide]
15.7 nM	173 nM	Cn1cc2c(cc1=O)OCCCCc1cc(Cl)ccc1Oc1ncc(CO)cc1-2 [Example A-39, 11-chloro-17-(hydroxymethyl)-2-methyl-6,7,8,9-tetrahydrobenzo[11,12][1,6]dioxacyclododecino[2,3-b:4,5-c′]dipyridin-3(2H)-one]
6.09 nM	23.7 nM	Cn1cc2c(cc1=O)OCCCCc1cc(Cl)ccc1Oc1ncc(CS(C)(=O)=O)cc1-2 [Example A-40, 11-chloro-2-methyl-17-((methylsulfonyl)methyl)-6,7,8,9-tetrahydrobenzo[11,12][1,6]dioxacyclododecino[2,3-b:4,5-c′]dipyridin-3(2H)-one]
3.82 nM	10.7 nM	Cn1cc2c(cc1=O)OCCCCc1cc(F)cc(F)c1Oc1ncc(CS(C)(=O)=O)cc1-2 [Example A-43, 11,13-difluoro-2-methyl-17-((methylsulfonyl)methyl)-6,7,8,9-tetrahydrobenzo[11,12][1,6]dioxacyclododecino[2,3-b:4,5-c′]dipyridin-3(2H)-one]
1.32 nM	4.31 nM	CCS(=O)(=O)Nc1ccc2c(c1)-c1cn(C)c(=O)cc1OCCCCc1cc(F)c(F)cc1O2 [Example A-48, N-(11,12-difluoro-2-methyl-3-oxo-2,3,6,7,8,9-hexahydrodibenzo[4,5:7,8][1,6]dioxacyclododecino[3,2-c]pyridin-17-yl)ethanesulfonamide]
8.44 nM	53.1 nM	CCS(=O)(=O)c1ccc2c(c1)-c1nn(C)c(=O)cc1OCCCCc1cc(F)cc(F)c1O2 [Example A-57, 17-(ethylsulfonyl)-11,13-difluoro-2-methyl-6,7,8,9-tetrahydrodibenzo[4,5:7,8][1,6]dioxacyclododecino[3,2-c]pyridazin-3(2H)-one]
2.01 nM	18.4 nM	CCS(=O)(=O)Nc1ccc2c(c1)-c1nn(C)c(=O)cc1OCCCCc1cc(F)cc(F)c1O2 [Example A-58, N-(11,13-difluoro-2-methyl-3-oxo-2,3,6,7,8,9-hexahydrodibenzo[4,5:7,8][1,6]dioxacyclododecino[3,2-c]pyridazin-17-yl)ethanesulfonamide]
